Patent publication US10106523B2, “Amide compound” (ASTELLAS PHARMA INC., priority 2014, dated 2018)

Biological target: rat EP4 receptor (Rattus norvegicus, UniProt P43114)
Assay: Evaluation test of rat EP4 receptor affinity ([3H]PGE2 binding, membrane fraction of HEK-293 cells)
Parameters: expressed in transfected cells; host or cells: HEK-293 (ATCC CRL-1573), transient
Settings: 0.3 nmol/L [3H]PGE2, rat EP4 cell membrane fraction, room temperature 1 hour; read-out: Ki value with respect to the rat EP4 receptor
Description: Test Example 1: Evaluation Test of Rat EP4 Receptor Affinity
Construction of Rat EP4 Receptor Expressing Vector:
A rat EP4 receptor gene (GenBank accession No.: NM_032076.1) was transfected into an expression vector pcDNA3.1-V5-His-TOPO (Invitrogen Inc.).
Transient Expression of Rat EP4 Receptor:
The expression vector of a rat EP4 receptor was transfected into an HEK-293 cell (ATCC No.: CRL-1573). The transfection was carried out according to an appended instruction, using Lipofectoamine (registered trademark) 2000 reagent (Invitrogen Inc.). After the transfection, the cells were cultured in an α-MEM culture medium for 20 to 24 hours.
Preparation of Membrane Fraction:
The culture medium was removed by aspiration, 10 mL of cooled phosphate buffered saline (PBS) was added thereto per 15 cm dish, and the cells were scraped using a cell scraper (Sumitomo Bakelite). […]
[^3H]PGE2 and a cell membrane fraction were diluted with an assay buffer (50 mmol/L HEPES-NaOH, 10 mmol/L MgCl2, pH 7.5), and the test compound and unlabeled PGE2 (Cayman) were diluted with DMSO and the assay buffer. […] The radioactivity was measured using a TopCount (Perkin Elmer). […] The specific binding amount was determined by subtracting the non-specific binding amount from the total binding amount. The Ki value was calculated according to a standard method.

Chain of rat EP4 receptor (P43114 whole entry): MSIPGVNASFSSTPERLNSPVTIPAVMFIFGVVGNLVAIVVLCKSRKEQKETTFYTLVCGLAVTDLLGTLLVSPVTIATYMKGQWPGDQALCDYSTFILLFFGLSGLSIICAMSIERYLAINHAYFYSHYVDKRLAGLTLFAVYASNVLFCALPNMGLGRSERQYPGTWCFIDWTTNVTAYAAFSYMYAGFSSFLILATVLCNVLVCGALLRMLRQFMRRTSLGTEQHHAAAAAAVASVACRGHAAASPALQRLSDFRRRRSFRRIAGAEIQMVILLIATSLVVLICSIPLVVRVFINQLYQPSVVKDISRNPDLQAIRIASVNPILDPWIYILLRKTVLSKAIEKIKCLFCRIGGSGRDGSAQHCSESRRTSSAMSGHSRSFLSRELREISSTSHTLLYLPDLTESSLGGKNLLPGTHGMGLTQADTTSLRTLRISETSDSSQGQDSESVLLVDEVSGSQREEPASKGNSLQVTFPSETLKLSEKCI

Compound: Cc1cc(C(=O)N[C@@H](C)c2ccc(C(=O)O)cc2)n(Cc2ccc(Cl)cc2)n1 [Example 205 in Patent Document 1, reference compound]
- Ki: 140 nM
